Experiment: Body weight loss in the CO-04-0310 PDX study
Format: in vivo, Balb/c nude mice
Settings: CO-04-0310 study; Compound 1 30 mg/kg/dose BID monotherapy; DietGel starting on treatment day 14
Experimental: Treatment started on the day after randomization. The treatment start day was denoted as treatment day 1. Mice were dosed by oral administration of vehicle control solution or monotherapy treatments of Compound 1 at 30 mg/kg/dose BID or sotorasib at 100 mg/kg QD. An additional group received combination treatment of Compound 1 at 30 mg/kg/dose BID or sotorasib at 100 mg/kg QD. BID was dosed at an 8-hour interval. In the combination group, sotorasib was dosed first and Compound 1 was dosed one hour later. In addition to regular food and water supply. DietGel (Ready Jelly R. 76A. Ready Biotechnology (ShenZhen) Co., Ltd.) was added in cages where at least two mice in a treatment group started showing >10% BWL at any measurement day. DietGel was supplied through the remaining study period after the addition of DietGel. Per this practice, mice in the Compound 1 at 30 mg/kg/dose BID monotherapy treatment group were supplied with DictGel food starting on treatment day 14. The study was terminated on treatment day 28 as defined in the study protocol.

With `Cc1cnc(NC2CCOCC2)nc1-n1cnc(C(=O)N[C@H](CN)c2cc(F)cc(Cl)c2)c1` [Compound 1, (S)—N-(2-amino-1-(3-chloro-5-fluorophenyl)ethyl)-1-(5-methyl-2-((tetrahydro-2H-pyran-4-yl)amino)pyrimidin-4-yl)-1H-imidazole-4-carboxamide] as the molecule, how does the “BWL (at least two mice in treatment group; DietGel supplied)” value read?
Its value is greater than 10%.

From US20240285625A1, “ERK1/2 AND KRAS G12C INHIBITORS COMBINATION THERAPY” (Erasca, Inc., priority 2021, published 2024)
